The values that follow come from patent US20240293423A1, “STAT DEGRADERS AND USES THEREOF” (Kymera Therapeutics, Inc., priority 2020, published 2024).

Molecules are shown by their SMILES.

This assay deals with T1, STAT3 (Homo sapiens, UniProt P40763).
T1 construct: expressed in transfected cells; host or cells: A549
T1 sequence (P40763 whole entry): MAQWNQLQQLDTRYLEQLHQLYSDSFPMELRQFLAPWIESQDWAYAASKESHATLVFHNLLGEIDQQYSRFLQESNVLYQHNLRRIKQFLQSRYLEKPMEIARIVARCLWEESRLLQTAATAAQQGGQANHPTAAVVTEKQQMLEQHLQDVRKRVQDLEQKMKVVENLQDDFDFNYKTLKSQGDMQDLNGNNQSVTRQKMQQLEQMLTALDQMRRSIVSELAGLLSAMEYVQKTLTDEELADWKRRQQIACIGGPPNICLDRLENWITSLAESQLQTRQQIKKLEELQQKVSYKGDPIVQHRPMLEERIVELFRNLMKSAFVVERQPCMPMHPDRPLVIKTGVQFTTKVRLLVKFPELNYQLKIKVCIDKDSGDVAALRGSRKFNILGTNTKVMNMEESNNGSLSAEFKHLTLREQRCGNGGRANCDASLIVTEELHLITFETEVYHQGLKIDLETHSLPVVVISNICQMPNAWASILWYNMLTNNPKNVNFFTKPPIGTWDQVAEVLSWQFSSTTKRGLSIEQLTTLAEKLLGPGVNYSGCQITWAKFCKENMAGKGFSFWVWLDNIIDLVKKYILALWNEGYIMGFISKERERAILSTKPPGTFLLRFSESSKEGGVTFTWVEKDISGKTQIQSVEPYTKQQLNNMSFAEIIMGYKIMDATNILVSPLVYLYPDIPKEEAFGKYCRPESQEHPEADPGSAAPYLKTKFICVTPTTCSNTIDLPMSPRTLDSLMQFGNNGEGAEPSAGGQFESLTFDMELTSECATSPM
The experiment in a line: STAT3 HiBiT degradation assay in transfected A549 cells. Type of assay: cell-based. To be noted: 24 h compound incubation, Nano-Glo HiBiT lytic detection, read-out: Cell: STAT3 HiBit A549 degradation 24 h GMean External Abs-DC50. On the procedure: Compound preparation and Cell seeding: The transfected A549 cells were harvested from dish into cell culture medium and cell numbers counted. Cells were diluted with culture medium to the desired density and 30 μL of cell suspension (about 2000 cells/well) were added into each well of a 384-well cell culture plate as designated and transferred into 37° C. 5% CO2 incubator for 24 h. Compounds were dissolved to 10 mM stock solution and 12 μL of the stock solution was transferred to a 384 LDV-plate. 3 fold, 10-point dilution was performed by transferring 4 μL compound into 8 μL DMSO using a TECAN (EVO200) liquid handler. 30 μL of diluted compound from compound source plate was transferred into the cell plate as designated by using Echo550 and transferred into 37° C. 5% CO2 incubator for 24 h.
Detection: Plates were removed from incubators and equilibrated at room temperature for 15 minutes. Nano-Glo Hibit Lytic Detection reagent (Promega Cat #N3040) was thawed and equilibrated to room temperature before the experiment. 30 μL of Nano-Glo Hibit Lytic Detection reagent was added into each well to be detected. The plates were held at room temperature for 10 min followed by reading on EnSpire.
Data analysis: The remaining activity was calculated following the formula: Remaining Activity (%)=100%×(Lumsample−LumNC)/(LumPC−LumNC). Calculate the IC50 by fitting the curve using Xlfit (v5.3.1.3), equation 201: fit=(A+((B−A)/(1+((x/C)^D)))); A: Botton; B: Top; C: IC50; and D: Slope.
The letter codes for STAT3 DC50 include: A (<0.05 μM), B (0.05-0.2 μM), C (0.2-1.0 μM), and D (>1.0 μM).
In general terms: With HiBiT, luminescence reflects the tagged protein that the partner subunit can reach.
For `Cn1c(=O)n(C2CCC(=O)NC2=O)c2ccc(CCCC3CCN(C(=O)[C@H](Cc4ccc(F)c(F)c4)NC(=O)[C@H](CCC(N)=O)NC(=O)[C@@H]4CC[C@@H]5CCCC[C@H](NC(=O)c6cc7cc(C(F)(F)P(=O)(O)O)ccc7s6)C(=O)N54)CC3)cc21` (stereo partly drawn) [Compound I-11], the DC50 lay in the range of 50 to 200 nM. The figure for `CC(=O)N1CC[C@H]2CC[C@@H](C(=O)N[C@@H](CCC(N)=O)C(=O)N[C@H](C(=O)N3CCC(CCCc4ccc5c(c4)n(C)c(=O)n5C4CCC(=O)NC4=O)CC3)C3CCCCC3)N2C(=O)[C@@H](NC(=O)c2cc3cc(C(=O)P(=O)(O)O)ccc3s2)C1` (stereo partly drawn) [Compound I-30] is over 1000 nM; for `CC(=O)N1CC[C@H]2CC[C@@H](C(=O)N[C@@H](CCC(N)=O)C(=O)N[C@@H](Cc3ccc(F)c(F)c3)C(=O)N3CCC(CCCc4cccc5c4n(C)c(=O)n5C4CCC(=O)NC4=O)CC3)N2C(=O)[C@@H](NC(=O)c2cc3cc(C(=O)P(=O)(O)O)ccc3[nH]2)C1` (stereo partly drawn) [Compound I-9] it is 200 to 1000 nM; for `CC(=O)N1CC[C@H]2CC[C@@H](C(=O)N[C@@H](CCC(N)=O)C(=O)N[C@H](C(=O)N3CCC(CCC#Cc4cccc5c4n(C)c(=O)n5C4CCC(=O)NC4=O)CC3)C3CCCCC3)N2C(=O)[C@@H](NC(=O)c2cc3cc(C(=O)P(=O)(O)O)ccc3s2)C1` (stereo partly drawn) [Compound I-31] it is 50 to 200 nM. The figure for `Cn1c(=O)n(C2CCC(=O)NC2=O)c2cccc(CCCC3CCN(C(=O)[C@H](Cc4ccc(F)c(F)c4)NC(=O)[C@H](CCC(N)=O)NC(=O)N4Cc5cccc6c5C4C(=O)[C@@H](NC(=O)c4cc5cc(C(=O)P(=O)(O)O)ccc5[nH]4)CC6)CC3)c21` (stereo partly drawn) [Compound I-13] is 200 to 1000 nM. Turning to `CC(=O)N1CC[C@H]2CC[C@@H](C(=O)N[C@@H](CCC(N)=O)C(=O)N[C@@H](Cc3ccc(F)c(F)c3)C(=O)N3CCC(CCCc4ccc5c(c4)n(C)c(=O)n5C4CCC(=O)NC4=O)CC3)N2C(=O)[C@@H](NC(=O)c2cc3cc(C(=O)P(=O)(O)O)ccc3[nH]2)C1` (stereo partly drawn) [Compound I-8], the half-maximal degradation concentration (DC50) was over 1000 nM. The figure for `CC(=O)N1CC[C@H]2CC[C@@H](C(=O)N[C@@H](CCC(N)=O)C(=O)N[C@H](C(=O)N3CCC(CCC#Cc4cccc5c4n(C)c(=O)n5C4CCC(=O)NC4=O)CC3)C3CCCCC3)N2C(=O)[C@@H](NC(=O)c2cc3cc(C(=O)P(=O)(O)O)ccc3[nH]2)C1` (stereo partly drawn) [Compound I-29] is over 1000 nM. As for `COC(=O)N1CC[C@H]2CC[C@@H](C(=O)N[C@@H](CCC(N)=O)C(=O)N[C@@H](Cc3ccc(F)c(F)c3)C(=O)N3CCC(CCCc4cccc5c4n(C)c(=O)n5C4CCC(=O)NC4=O)CC3)N2C(=O)[C@@H](NC(=O)c2cc3cc(C(=O)P(=O)(O)O)ccc3[nH]2)C1` (stereo partly drawn) [Compound I-6], the DC50 fell in the range of 200 to 1000 nM. To `CC(=O)N1CC[C@H]2CC[C@@H](C(=O)N[C@@H](CCC(N)=O)C(=O)N[C@H](C(=O)N3CCC(CCCCc4cccc5c4n(C)c(=O)n5C4CCC(=O)NC4=O)CC3)C3CCCCC3)N2C(=O)[C@@H](NC(=O)c2cc3cc(C(=O)P(=O)(O)O)ccc3[nH]2)C1` (stereo partly drawn) [Compound I-27] belongs over 1000 nM; to `Cn1c(=O)n(C2CCC(=O)NC2=O)c2ccc(CCCC3CCN(C(=O)[C@H](Cc4ccc(F)c(F)c4)NC(=O)[C@H](CCC(N)=O)NC(=O)[C@@H]4CC[C@@H]5CCCC[C@H](NC(=O)c6cc7cc(C(=O)P(=O)(O)O)ccc7[nH]6)C(=O)N54)CC3)cc21` (stereo partly drawn) [Compound I-12], 200 to 1000 nM; to `COC(=O)N1CC[C@H]2CC[C@@H](C(=O)N[C@@H](CCC(N)=O)C(=O)N[C@H](C(=O)N3CCC(CCCCc4cccc5c4n(C)c(=O)n5C4CCC(=O)NC4=O)CC3)C3CCCCC3)N2C(=O)[C@@H](NC(=O)c2cc3cc(C(F)(F)P(=O)(O)O)ccc3s2)C1` (stereo partly drawn) [Compound I-17], 200 to 1000 nM. The figure for `COC(=O)N1CC[C@H]2CC[C@@H](C(=O)N[C@@H](CCC(N)=O)C(=O)N[C@@H](Cc3ccc(F)c(F)c3)C(=O)N3CCC(CCC#Cc4ccc5c(c4)n(C)c(=O)n5C4CCC(=O)NC4=O)CC3)N2C(=O)[C@@H](NC(=O)c2cc3cc(C(=O)P(=O)(O)O)ccc3[nH]2)C1` (stereo partly drawn) [Compound I-4] is 200 to 1000 nM. To `CC(=O)N1CC[C@H]2CC[C@@H](C(=O)N[C@@H](CCC(N)=O)C(=O)N[C@@H](Cc3ccc(F)c(F)c3)C(=O)N3CCC(CCC#Cc4ccc5c(c4)n(C)c(=O)n5C4CCC(=O)NC4=O)CC3)N2C(=O)[C@@H](NC(=O)c2cc3cc(C(F)(F)P(=O)(O)O)ccc3s2)C1` (stereo partly drawn) [Compound I-10] belongs 50 to 200 nM. `Cn1c(=O)n(C2CCC(=O)NC2=O)c2cccc(CCCC3CCN(C(=O)[C@H](Cc4ccc(F)c(F)c4)NC(=O)[C@H](CCC(N)=O)NC(=O)N4Cc5cccc6c5C4C(=O)[C@@H](NC(=O)c4cc5cc(C(F)(F)P(=O)(O)O)ccc5s4)CC6)CC3)c21` (stereo partly drawn) [Compound I-14]: the 50% degradation concentration (DC50) was over 1000 nM. `CC(=O)N1CC[C@H]2CC[C@@H](C(=O)N[C@@H](CCC(N)=O)C(=O)N[C@@H](Cc3ccc(F)c(F)c3)C(=O)N3CCC(CCC#Cc4ccc5c(c4)n(C)c(=O)n5C4CCC(=O)NC4=O)CC3)N2C(=O)[C@@H](NC(=O)c2cc3cc(C(=O)P(=O)(O)O)ccc3[nH]2)C1` (stereo partly drawn) [Compound I-7]: the half-maximal degradation concentration (DC50) is 200 to 1000 nM. Regarding `COC(=O)N1CC[C@H]2CC[C@@H](C(=O)N[C@@H](CCC(N)=O)C(=O)N[C@@H](Cc3ccc(F)c(F)c3)C(=O)N3CCC(CCC#Cc4ccc5c(c4)n(C)c(=O)n5C4CCC(=O)NC4=O)CC3)N2C(=O)[C@@H](NC(=O)c2cc3cc(C(F)(F)P(=O)(O)O)ccc3s2)C1` (stereo partly drawn) [Compound I-1], the DC50 was under 50 nM. As to `COC(=O)N1CC[C@H]2CC[C@@H](C(=O)N[C@@H](CCC(N)=O)C(=O)N[C@H](C(=O)N3CCC(CCC#Cc4cccc5c4n(C)c(=O)n5C4CCC(=O)NC4=O)CC3)C3CCCCC3)N2C(=O)[C@@H](NC(=O)c2cc3cc(C(=O)P(=O)(O)O)ccc3[nH]2)C1` (stereo partly drawn) [Compound I-19], the DC50 fell in the range of 200 to 1000 nM. Consider `COC(=O)N1CC[C@H]2CC[C@@H](C(=O)N[C@@H](CCC(N)=O)C(=O)N[C@@H](Cc3ccc(F)c(F)c3)C(=O)N3CCC(CCCc4ccc5c(c4)n(C)c(=O)n5C4CCC(=O)NC4=O)CC3)N2C(=O)[C@@H](NC(=O)c2cc3cc(C(=O)P(=O)(O)O)ccc3[nH]2)C1` (stereo partly drawn) [Compound I-5, 2-[[(5S,8S,10aR)-8-[[(1S)-3-carbamoyl-1-[[(2S)-3-(3,4-difluorophenyl)-1-(4-[3-[1-(2,6-dioxopiperidin-3-yl)-3-methyl-2-oxo-1,3-benzodiazol-5-yl]propyl]piperidin-1-yl)-1-oxopropan-2-yl]carbamoyl]propyl]carbamoyl]-3-(methoxycarbonyl)-6-oxo-octahydropyrrolo[1,2-a][1,5]diazocin-5-yl]carbamoyl]-1H-indole-5-carbonylphosphonic acid], for which the DC50 was 50 to 200 nM. Turning to `COC(=O)N1CC[C@H]2CC[C@@H](C(=O)N[C@@H](CCC(N)=O)C(=O)N[C@@H](Cc3ccc(F)c(F)c3)C(=O)N3CCC(CCCc4cccc5c4n(C)c(=O)n5C4CCC(=O)NC4=O)CC3)N2C(=O)[C@@H](NC(=O)c2cc3cc(C(F)(F)P(=O)(O)O)ccc3s2)C1` (stereo partly drawn) [Compound I-3], the DC50 is under 50 nM.

`COC(=O)N1CC[C@H]2CC[C@@H](C(=O)N[C@@H](CCC(N)=O)C(=O)N[C@H](C(=O)N3CCC(CCCc4ccc5c(c4)n(C)c(=O)n5C4CCC(=O)NC4=O)CC3)C3CCCCC3)N2C(=O)[C@@H](NC(=O)c2cc3cc(C(=O)P(=O)(O)O)ccc3[nH]2)C1` (stereo partly drawn) [Compound I-18]: the DC50 lay in the range of 200 to 1000 nM. The figure for `COC(=O)N1CC[C@H]2CC[C@@H](C(=O)N[C@@H](CCC(N)=O)C(=O)N[C@@H](Cc3ccc(F)c(F)c3)C(=O)N3CCC(CCCc4ccc5c(c4)n(C)c(=O)n5C4CCC(=O)NC4=O)CC3)N2C(=O)[C@@H](NC(=O)c2cc3cc(C(F)(F)P(=O)(O)O)ccc3s2)C1` (stereo partly drawn) [Compound I-2, (2-{[(5S,8S,10aR)-8-{[(1S)-3-carbamoyl-1-{[(2S)-3-(3,4-difluorophenyl)-1-(4-{3-[1-(2,6-dioxopiperidin-3-yl)-3-methyl-2-oxo-1,3-benzodiazol-5-yl]propyl}piperidin-1-yl)-1-oxopropan-2-yl]carbamoyl}propyl]carbamoyl}-3-(methoxycarbonyl)-6-oxo-octahydropyrrolo[1,2-a][1,5]diazocin-5-yl]carbamoyl}-1-benzothiophen-5-yl)difluoromethylphosphonic acid] is under 50 nM; for `CC(=O)N1CC[C@H]2CC[C@@H](C(=O)N[C@@H](CCC(N)=O)C(=O)N[C@H](C(=O)N3CCC(CCCCc4cccc5c4n(C)c(=O)n5C4CCC(=O)NC4=O)CC3)C3CCCCC3)N2C(=O)[C@@H](NC(=O)c2cc3cc(C(=O)P(=O)(O)O)ccc3s2)C1` (stereo partly drawn) [Compound I-32] it is 200 to 1000 nM; for `COC(=O)N1CC[C@H]2CC[C@@H](C(=O)N[C@@H](CCC(N)=O)C(=O)N[C@H](C(=O)N3CCC(CCCCc4cccc5c4n(C)c(=O)n5C4CCC(=O)NC4=O)CC3)C3CCCCC3)N2C(=O)[C@@H](NC(=O)c2cc3cc(C(=O)P(=O)(O)O)ccc3[nH]2)C1` (stereo partly drawn) [Compound I-20] it is 200 to 1000 nM. `COC(=O)N1CC[C@H]2CC[C@@H](C(=O)N[C@@H](CCC(N)=O)C(=O)N[C@H](C(=O)N3CCC(CCC#Cc4cccc5c4n(C)c(=O)n5C4CCC(=O)NC4=O)CC3)C3CCCCC3)N2C(=O)[C@@H](NC(=O)c2cc3cc(C(F)(F)P(=O)(O)O)ccc3s2)C1` (stereo partly drawn) [Compound I-16]: the DC50 is 200 to 1000 nM.

One may read the DC50 as the midpoint of the concentration-degradation curve.
